Measurements reported in ChEMBL document CHEMBL3045985, “Three-dimensional common-feature hypotheses for hypoglycemic flavonyl-2,4-thiazolidinedione derivatives” (2010).

What follows are compounds tested on INS1 (assay: Hypoglycemic activity in Rattus norvegicus (rat) INS1 cells assessed as glucose-mediated insulin release at 1 ug/ml after 90 min (reference value: 62.96 +/- 5.68 to 69.70 +/- 4.98 %)).
Type: functional

SMILES | Activity [%]
COc1ccc(Cl)cc1C(=O)NCCc1ccc(S(=O)(=O)NC(=O)NC2CCCCC2)cc1 [GLYBURIDE] | 210.4

Each compound was assayed on INS1 (assay: Hypoglycemic activity in Rattus norvegicus (rat) INS1 cells assessed as glucose-mediated insulin release after 90 min (reference value: 62.96 +/- 5.68 to 69.70 +/- 4.98 %)).
Type: functional

SMILES | Activity [%]
O=C1NC(=S)N/C1=C/c1cccc(-c2cc(=O)c3ccccc3o2)c1 | 247.1
O=C1NC(=O)C(Cc2cccc(-c3cc(=O)c4ccccc4o3)c2)S1 (stereo not drawn) | 69.89
O=C1NC(=O)/C(=C/c2ccc(-c3cc(=O)c4ccccc4o3)cc2)S1 | 55.7
O=C1NC(=O)/C(=C\c2cccc(-c3cc(=O)c4ccccc4o3)c2)N1 | 103.3
O=C1NC(=O)/C(=C/c2ccc(-c3cc(=O)c4ccccc4o3)cc2)N1 | 105.1
CCN1C(=O)S/C(=C\c2ccc(-c3cc(=O)c4ccccc4o3)cc2)C1=O | 117.9
CCN1C(=O)S/C(=C/c2cccc(-c3cc(=O)c4ccccc4o3)c2)C1=O | 299
CN1C(=O)S/C(=C\c2ccc(-c3cc(=O)c4ccccc4o3)cc2)C1=O | 145.1
CCN1C(=O)N/C(=C/c2cccc(-c3cc(=O)c4ccccc4o3)c2)C1=O | 167.8
CN1C(=O)/C(=C\c2cccc(-c3cc(=O)c4ccccc4o3)c2)N(C)C1=S | 102.8
CN1C(=O)/C(=C/c2ccc(-c3cc(=O)c4ccccc4o3)cc2)N(C)C1=S | 114.3
O=C1NC(=S)N/C1=C\c1ccc(-c2cc(=O)c3ccccc3o2)cc1 | 130.3
CN1C(=O)S/C(=C/c2cccc(-c3cc(=O)c4ccccc4o3)c2)C1=O | 134.9
CCN1C(=O)/C(=C/c2ccc(-c3cc(=O)c4ccccc4o3)cc2)N(CC)C1=S | 96.27
CN1C(=O)/C(=C/c2ccc(-c3cc(=O)c4ccccc4o3)cc2)N(C)C1=O | 103.4
CN1C(=O)/C(=C\c2cccc(-c3cc(=O)c4ccccc4o3)c2)N(C)C1=O | 218.3
O=C1NC(=O)C(Cc2ccc(-c3cc(=O)c4ccccc4o3)cc2)S1 (stereo not drawn) | 135.5
O=C1NC(=O)/C(=C\c2cccc(-c3cc(=O)c4ccccc4o3)c2)S1 | 79.76
CCN1C(=O)/C(=C\c2cccc(-c3cc(=O)c4ccccc4o3)c2)NC1=S | 129.6
CCN1C(=O)/C(=C/c2ccc(-c3cc(=O)c4ccccc4o3)cc2)N(CC)C1=O | 127.1

The compounds below were run on INS1 (assay: Hypoglycemic activity in Rattus norvegicus (rat) INS1 cells assessed as glucose-mediated insulin release at 10 umol/l after 90 min (reference value: 62.96 +/- 5.68 to 69.70 +/- 4.98 %)).
Type: functional

SMILES | Activity [%]
CN(CCOc1ccc(CC2SC(=O)NC2=O)cc1)c1ccccn1 (stereo not drawn) [ROSIGLITAZONE] | 116

The compounds below were run on INS1 (assay: Hypoglycemic activity in Rattus norvegicus (rat) INS1 cells assessed as insulin release at 5.6 mmol/l after 90 min (reference value: 62.96 +/- 5.68 to 69.70 +/- 4.98 %)).
Type: functional

SMILES | Activity [%]
OC[C@H]1OC(O)[C@H](O)[C@@H](O)[C@@H]1O (stereo partly drawn) [DEXTROSE] | 100
